Values after ≈ are worked out from the molar mass of the structure shown.
Tests used:
[1] = biological target: T1, Enoyl-[acyl-carrier-protein] reductase [NADPH] FabI (Staphylococcus aureus, UniProt Q6GI75); test: Inhibition of Staphylococcus aureus FabI
T1 sequence (Q6GI75 whole entry): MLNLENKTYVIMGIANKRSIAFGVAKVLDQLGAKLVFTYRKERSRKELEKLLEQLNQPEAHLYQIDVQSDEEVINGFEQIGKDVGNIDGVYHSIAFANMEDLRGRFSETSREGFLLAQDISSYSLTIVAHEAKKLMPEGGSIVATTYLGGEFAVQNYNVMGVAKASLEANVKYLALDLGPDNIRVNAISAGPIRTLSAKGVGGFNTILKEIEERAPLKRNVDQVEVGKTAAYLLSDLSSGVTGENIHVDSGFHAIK

[2] = biological target: T2, Enoyl-[acyl-carrier-protein] reductase [NADH] FabI (Escherichia coli K-12, UniProt P0AEK4); test: Inhibition of Escherichia coli FabI assessed as effect on NAD(P)H consumption
T2 sequence (P0AEK4 whole entry): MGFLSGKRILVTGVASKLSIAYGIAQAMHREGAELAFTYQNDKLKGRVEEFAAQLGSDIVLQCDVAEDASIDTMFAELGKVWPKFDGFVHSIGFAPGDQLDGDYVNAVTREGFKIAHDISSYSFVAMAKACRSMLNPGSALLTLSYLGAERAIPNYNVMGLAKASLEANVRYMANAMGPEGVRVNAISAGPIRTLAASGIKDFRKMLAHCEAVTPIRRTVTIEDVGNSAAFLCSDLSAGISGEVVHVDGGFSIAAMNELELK

[3] = Aqueous solubility at pH 4.0; format: physicochemical
[4] = Aqueous solubility at pH 7.4; format: physicochemical
Staphylococcus aureus [5] = test: Antibacterial activity against Staphylococcus aureus 29213 by microdilution method; format: functional
Staphylococcus aureus [6] = test: Antibacterial activity against methicillin-resistant Staphylococcus aureus 43300 by microdilution method; format: functional
Escherichia coli = test: Antibacterial activity against Escherichia coli AG100A […] by microdilution method; format: functional

Compound | IC50 [1] | IC50 [2] | solubility [3] | solubility [4] | MIC (Staphylococcus aureus [5]) | MIC (Staphylococcus aureus [6]) | MIC (Escherichia coli)
Cc1c(CN(C)C(=O)/C=C/c2cnc3c(c2)CC2(CCN(C)CC2)C(=O)N3)oc2ccccc12 | 20 nM | 1.8 nM | 83 µg/mL (≈ 181 µM) | 43 µg/mL (≈ 93.8 µM) | ≤ 0.016 µg/mL | ≤ 0.016 µg/mL | 0.25 µg/mL (≈ 0.545 µM)
CCCOc1c(CN(C)C(=O)/C=C/c2cnc3c(c2)CC2(CCN(C)CC2)C(=O)N3)cccc1OC | 26 nM | 55 nM | 1500 µg/mL (≈ 3040 µM) | 1000 µg/mL (≈ 2030 µM) | 0.031 µg/mL (≈ 0.0629 µM) | 0.125 µg/mL (≈ 0.254 µM) | 4 µg/mL (≈ 8.12 µM)
Cc1c(CN(C)C(=O)/C=C/c2cnc3c(c2)CN(CCN2CCOCC2)C(=O)N3)sc2ccccc12 | 26 nM | 7 nM | > 67 µg/mL | 6.1 µg/mL (≈ 12.1 µM) | ≤ 0.063 µg/mL | ≤ 0.063 µg/mL | ≤ 0.063 µg/mL
CCCOc1c(CN(C)C(=O)/C=C/c2cnc3c(c2)CC2(CCNCC2)C(=O)N3)cccc1OC | 71 nM |  | 700 µg/mL (≈ 1460 µM) | 520 µg/mL (≈ 1090 µM) | 0.125 µg/mL (≈ 0.261 µM) | 0.5 µg/mL (≈ 1.04 µM) | 2 µg/mL (≈ 4.18 µM)
Cc1c(CN(C)C(=O)/C=C/c2cnc3c(c2)CC2(CCNCC2)C(=O)N3)sc2ccccc12 | 48 nM | 0.4 nM | 22 µg/mL (≈ 47.8 µM) | 4.8 µg/mL (≈ 10.4 µM) | ≤ 0.016 µg/mL | 0.063 µg/mL (≈ 0.137 µM) | ≤ 0.063 µg/mL
Cc1c(CN(C)C(=O)/C=C/c2cnc3c(c2)CC2(CCNCC2)C(=O)N3)oc2ccccc12 | 49 nM | 0.7 nM | 1500 µg/mL (≈ 3370 µM) | 100 µg/mL (≈ 225 µM) | 0.031 µg/mL (≈ 0.0697 µM) | 0.031 µg/mL (≈ 0.0697 µM) | ≤ 0.063 µg/mL
Cc1c(CN(C)C(=O)/C=C/c2cnc3c(c2)CCC(=O)N3)sc2ccccc12 | 30 nM |  |  |  | 0.125 µg/mL (≈ 0.319 µM) | 0.063 µg/mL (≈ 0.161 µM) | 4 µg/mL (≈ 10.2 µM)
CN(Cc1cc2ccccc2n1C)C(=O)/C=C/c1cnc2c(c1)CCC(=O)N2 |  | 139 nM |  | 5.8 µg/mL (≈ 15.5 µM) | ≤ 0.016 µg/mL | 0.016 µg/mL (≈ 0.0427 µM) | ≤ 0.063 µg/mL
Cc1c(CN(C)C(=O)/C=C/c2cnc3c(c2)CC2(CCN(C)CC2)C(=O)N3)sc2ccc(F)cc12 | 28 nM | 24 nM | 790 µg/mL (≈ 1600 µM) | 110 µg/mL (≈ 223 µM) | ≤ 0.016 µg/mL | ≤ 0.016 µg/mL | ≤ 0.063 µg/mL
Cc1c(CN(C)C(=O)/C=C/c2cnc3c(c2)CC2(CCN(C)CC2)C(=O)N3)sc2ccccc12 | 14 nM | 2.4 nM | 360 µg/mL (≈ 758 µM) | 110 µg/mL (≈ 232 µM) | ≤ 0.016 µg/mL | ≤ 0.016 µg/mL | ≤ 0.063 µg/mL
CN(Cc1cc2ccccc2n1C)C(=O)/C=C/c1cnc2c(c1)CC1(CCNCC1)C(=O)N2 | 132 nM | 17 nM | > 100 µg/mL | > 100 µg/mL | 0.5 µg/mL (≈ 1.13 µM) | 2 µg/mL (≈ 4.51 µM) | 0.5 µg/mL (≈ 1.13 µM)

— ChEMBL document CHEMBL1155988, “Spiro-naphthyridinone piperidines as inhibitors of S. aureus and E. coli enoyl-ACP reductase (FabI)” (Bioorg Med Chem Lett, 2009)
